Measured values from article PMC11579541, “In vitro, in vivo, and in silico approaches for evaluating the preclinical DMPK profiles of ammoxetine, a novel chiral serotonin and norepinephrine reuptake inhibitor” (Frontiers in Pharmacology, 2024).
Where two headings read alike, the source gives them in different places.

Experiment: PK studies in beagle dogs
Type: in vivo
Settings: for AUC(0-inf) / AUC(0-t) / MRT last / MRT inf / Tmax / half-life / Cmax / CL/F / Vd/F: beagle; for MRT last: read-out: MRT(0-t); for MRT inf: read-out: MRT(0-∞); for half-life: read-out: t1/2z (converted); for CL/F: read-out: CLz/F (converted); for Vd/F: read-out: Vz/F
Description: For the PK studies in rats and dogs, a total of 18 SD rats and 15 male beagle dogs were randomly divided into three groups, with six rats or five dogs per group, respectively. Prior to the experiments, all animals underwent a 12-h fasting period, while having free access to water. The animals were administered single oral doses of ammoxetine in three different dose levels: 8 mg/kg, 20 mg/kg, and 50 mg/kg for rats, and 2 mg/kg, 5 mg/kg, and 12.5 mg/kg for dogs, representing low, medium, and high doses. Serial blood samples were collected from the rats at 0, 2, 5, 15, and 30 min, as well as 1, 2, 4, 6, 8, 12, and 24 h post-dosing. For the dogs, blood samples were collected at 0, 5, 15, 30, and 45 min, as well as 1, 2, 4, 6, 8, 12, and 24 h post-dosing. Approximately 0.3 mL of blood was collected from the rats, while 2 mL of blood was collected from the dogs. The blood samples were collected into heparinized tubes. Following centrifugation, plasma samples were obtained and stored at −30°C until further analysis.
For the absolute bioavailability (F, %) study in dogs, the dogs initially received a single gastric gavage of a low dose (2 mg/kg) of ammoxetine, followed by a 1-week washout period. After the washout, the same dose of ammoxetine was administered intravenously (i.v.). To assess the effects of nonfasting on ammoxetine PK, dogs that received a medium dose (5 mg/kg) of ammoxetine via gastric gavage underwent a radical washout period of 1 week. Subsequently, they were administered the same dose of ammoxetine via gastric gavage under nonfasting conditions. To compare sex differences in ammoxetine PK, an additional five female beagle dogs were administered a medium dose (5 mg/kg) of ammoxetine via gastric gavage after a 12-h overnight fast. Blood samples (2 mL) were collected from these dogs into heparinized tubes at predose and at specified time points: 5, 15, 30, and 45 min, as well as 1, 2, 4, 6, 8, 12, and 24 h postdose. For the repeat-dose study, after completing blood collection during the initial administration, dogs receiving a single gastric gavage of a medium dose (5 mg/kg) of ammoxetine under fasting conditions were subsequently orally dosed with seven repeat doses of ammoxetine (5 mg/kg) every 12 h. Trough blood samples were collected before the fourth to last administration to ensure steady-state blood concentrations (C ss ) were achieved. Approximately 2 mL of blood was collected at specified time points after the last dose and transferred into heparinized tubes. All blood samples were then centrifuged at 4,000 r/min for 20 min to obtain plasma samples, which were stored at −30°C until analysis.
To determine the concentration of ammoxetine, 100 μL of L-phencynonate (IS, 50 ng/mL) and 300 μL of methanol were added to 100 μL of plasma samples from rats or dogs. After thorough vortexing, the mixture was centrifuged at 13,800×g for 10 min. The supernatants were then subjected to analysis using LC-MS-MS methods. PK parameters were calculated using DAS (Drug And Statistics for Windows) version 2.0, developed by the Shanghai University of Traditional Chinese Medicine, Shanghai, China. The F was determined by comparing the plasma area under the concentration-time curve (AUC) values after oral (p.o.) and intravenous (i.v.) administration of ammoxetine. F was calculated using the formula: F=AUCp.o./AUCi.v.×100% . Statistical analyses were performed using OriginPro 8.6 software. Paired sample or student’s t-test, as well as one-way ANOVA, were employed to compare the means of two or three groups, with a significance level set at p < 0.05.

[1] = beagle dogs, 2 mg/kg p.o. vs i.v.
[2] = beagle dogs, 5 mg/kg oral every 12 h, last time of multiple administrations
[3] = dog, plasma, po, 5 mg/kg, beagle dogs, 5 mg/kg oral every 12 h, last time of multiple administrations
[4] = female, dog, plasma, po, 5 mg/kg, female beagle dogs, 5 mg/kg oral, fasted
[5] = male, dog, plasma, iv, 2 mg/kg, beagle dogs, 2 mg/kg intravenous administration
[6] = male, dog, plasma, po, 2 mg/kg, beagle dogs, 2 mg/kg single oral dose
[7] = male, dog, plasma, po, 5 mg/kg, beagle dogs, 5 mg/kg oral every 12 h, last time of multiple administrations
[8] = male, dog, plasma, po, 5 mg/kg, beagle dogs, 5 mg/kg oral, fed (nonfasting)
[9] = male, dog, plasma, po, 5 mg/kg, male beagle dogs, 5 mg/kg single oral dose, fasted (first dose)
[10] = male, dog, plasma, po, 12.5 mg/kg, beagle dogs, 12.5 mg/kg single oral dose

For `CNCC[C@H](Oc1cccc2c1OCO2)c1cccs1` [ammoxetine], the “F (absolute bioavailability) based on AUC(0-t)” value [1] was 41.76 ± 9.25%, the “F (absolute bioavailability) based on AUC(0-∞)” value [1] was 41.94 ± 9.31% and the trough concentration (beagle dogs, 5 mg/kg oral every 12 h, before the 4th dose) was 84.17 ± 50.58 ng/mL. It also gave a trough concentration (beagle dogs, 5 mg/kg oral every 12 h, before the 5th dose) of 64.21 ± 31.71 ng/mL, a trough concentration (beagle dogs, 5 mg/kg oral every 12 h, before the 6th dose) of 86.13 ± 43.95 ng/mL and a trough concentration (beagle dogs, 5 mg/kg oral every 12 h, before the 7th dose) of 95.71 ± 39.83 ng/mL. The Cav [2] was 337.19 ± 112.27 ng/mL, the Cmin [2] was 95.71 ± 39.83 ng/mL and the “DF (degree of fluctuation)” value [2] was 2.00 ± 0.45. For the same molecule, the AUC(0-inf) [3] was 5000 ng·h/mL, the AUC(0-t) [3] was 4900 ng·h/mL and the MRT last [3] was 5.76 ± 0.6 h. It also gave an MRT inf [3] of 6.21 ± 0.73 h, a Tmax (dog, plasma, po, 5 mg/kg, beagle dogs, 5 mg/kg oral every 12 h, last time of multiple administrations, read-out: Tmax) of 1.1 ± 0.52 h and a half-life [3] of 4.13 ± 0.85 h. The AUC (dog, plasma, beagle dogs, 5 mg/kg oral every 12 h, last time of multiple administrations) was 4050 ng·h/mL, the AUC(0-inf) [4] was 1660 ng·h/mL and the AUC(0-t) [4] was 1640 ng·h/mL. The Cmax [4] was 476 ± 284 ng/mL, the CL/F [4] was 71.5 mL/min/kg and the MRT last [4] was 3.74 ± 0.78 h. The MRT inf [4] was 3.88 ± 0.83 h, the Tmax (female, dog, plasma, po, 5 mg/kg, female beagle dogs, 5 mg/kg oral, fasted, read-out: Tmax) was 0.85 ± 0.22 h and the Vd/F [4] was 20.9 ± 12.3 L/kg. It also gave a half-life [4] of 3.45 ± 0.4 h, an AUC(0-inf) [5] of 1010 ng·h/mL and an AUC(0-t) [5] of 1010 ng·h/mL. It also gave a Cmax [5] of 649 ± 119 ng/mL, an MRT last [5] of 2.3 ± 0.29 h and an MRT inf [5] of 2.33 ± 0.29 h. For the same molecule, the Tmax (male, dog, plasma, iv, 2 mg/kg, beagle dogs, 2 mg/kg intravenous administration, read-out: Tmax) was 0.05 ± 0.03 h, the half-life [5] was 2.72 ± 0.51 h and the AUC(0-inf) [6] was 420 ± 108 ng·h/mL. The AUC(0-t) [6] was 418 ± 108 ng·h/mL, the Cmax [6] was 165 ± 49.5 ng/mL and the CL/F [6] was 83.5 mL/min/kg. For the same molecule, the MRT last [6] was 2.94 ± 0.55 h, the MRT inf [6] was 3.08 ± 0.69 h and the Tmax (male, dog, plasma, po, 2 mg/kg, beagle dogs, 2 mg/kg single oral dose, read-out: Tmax) was 0.75 ± 0.18 h. It also gave a Vd/F [6] of 24.9 ± 13 L/kg, a half-life [6] of 3.4 ± 1.28 h and a Cmax [7] of 761 ± 254 ng/mL. It also gave a CL/F [7] of 18.7 mL/min/kg, a Vd/F [7] of 6.63 ± 2.77 L/kg and an AUC(0-inf) [8] of 1960 ± 742 ng·h/mL. For the same molecule, the AUC(0-t) [8] was 1950 ± 738 ng·h/mL, the Cmax [8] was 522 ± 234 ng/mL and the CL/F [8] was 49.3 mL/min/kg. It also gave an MRT last [8] of 4.14 ± 0.54 h, an MRT inf [8] of 4.28 ± 0.59 h and a Tmax (male, dog, plasma, po, 5 mg/kg, beagle dogs, 5 mg/kg oral, fed (nonfasting), read-out: Tmax) of 0.8 ± 0.21 h. For the same molecule, the Vd/F [8] was 14 ± 6.8 L/kg, the half-life [8] was 3.28 ± 0.28 h and the AUC(0-inf) [9] was 1980 ± 533 ng·h/mL. The AUC(0-t) [9] was 1960 ± 527 ng·h/mL, the Cmax [9] was 524 ± 214 ng/mL and the CL/F [9] was 45.2 mL/min/kg. It also gave an MRT last [9] of 4.4 ± 0.65 h, an MRT inf [9] of 4.7 ± 0.85 h and a Tmax (male, dog, plasma, po, 5 mg/kg, male beagle dogs, 5 mg/kg single oral dose, fasted (first dose), read-out: Tmax) of 0.8 ± 0.11 h. It also gave a Vd/F [9] of 14.9 ± 5.08 L/kg, a half-life [9] of 3.81 ± 0.52 h and an AUC(0-inf) [10] of 8400 ng·h/mL. It also gave an AUC(0-t) [10] of 7900 ng·h/mL, a Cmax [10] of 1470 ng/mL and a CL/F [10] of 25.8 mL/min/kg. It also gave an MRT last [10] of 5.43 ± 1.18 h, an MRT inf [10] of 7.53 ± 4.7 h and a Tmax (male, dog, plasma, po, 12.5 mg/kg, beagle dogs, 12.5 mg/kg single oral dose, read-out: Tmax) of 1.4 ± 0.6 h. For the same molecule, the Vd/F [10] was 13.9 ± 11 L/kg, the half-life [10] was 6.2 ± 4.43 h and the Tmax (male, dog, plasma, po, 12.5 mg/kg, beagle dogs, oral 2, 5 and 12.5 mg/kg, read-out: Tmax values, range) was 0.75 to 1.4 h. For the same molecule, the bioavailability (male, dog, plasma, oral, beagle dogs, 2 mg/kg, approximate value, read-out: absolute bioavailability) was about 42%, the clearance (male, dog, plasma, beagle dogs, 2 mg/kg intravenous administration, total clearance, read-out: CLz (converted)) was 34 mL/min/kg and the Vd (male, dog, plasma, beagle dogs, 2 mg/kg intravenous administration, volume of distribution, read-out: Vz) was 7.82 ± 1.2 L/kg.
